Common to all, as to format: biochemical
In test [1] the target is T1, norepinephrine (NE) transport (Rattus norvegicus, UniProt Q63380).
T1 construct: synaptosomal preparations were made from either whole brain (5-HT), striatum (DA) or hypothalamus (NE); from tissue; host or cells: rat hypothalamus synaptosomes
Put plainly: Inhibition of [3H]NE uptake in rat hypothalamus synaptosomes. The settings on record: for inhibition at 0.5 µM: read-out: Uptake Inhibition % at 500 nM NE; for Uptake Inhibition % at 500 nM NE: 500 nM test compound, rat hypothalamus synaptosomes, [3H]NE, 20 min at 37° C. The method, then: (§1) The effects of arylbicyclo[3.1.0]hexylamines of the invention for inhibiting transport of norepinephrine (NE) and/or dopamine (DA) and/or serotonin (5-HT) were evaluated using preparations of synaptosomes from different regions of the rat brain according to previously-reported techniques.
(§2) Whole brains were obtained from normal rats, and synaptosomal preparations were made from either whole brain (5-HT), striatum (DA) or hypothalamus (NE) by gentle disruption in 10 volumes (w/v) of 0.32 M sucrose (0-4° C.) using a Teflon-glass homogenizer. The homogenate was then centrifuged at 1000×g for 10 min. The supernatant was retained and centrifuged at 23000 g for 20 min. The resulting pellet was gently resuspended in 200 volumes of 0.32 M sucrose (0-4° C.) using a teflon-glass homogenizer. Aliquots (250 μL) of this preparation were added to tubes, along with 0.2 μCi/mL of [^3H]5-HT, [^3H]DA, or [^3H]NE, 200 μL of selected 1-arylbicyclo[3.1.0]hexanamine test compounds (to yield final concentrations of 500 nM) and 1 mL of Krebs-Ringer bicarbonate buffer (pH 7.4). […] At the end of this period, the assay was terminated by rapid filtration over Whatman GF/C glass fiber filters. The filters were rinsed 3 times with 4 ml of Krebs-Ringer bicarbonate buffer (0-4° C.), and the radioactivity retained on the filters was measured by liquid scintillation spectrometry.

Test [2] deals with T2, serotonin (5-HT) transport (Rattus norvegicus, UniProt P31652). Put plainly: Inhibition of [3H]5-HT uptake in rat whole brain synaptosomes. As to conditions: for inhibition at 0.5 µM: read-out: Uptake Inhibition % at 500 nM 5-HT; for Uptake Inhibition % at 500 nM 5-HT: 500 nM test compound, rat whole brain synaptosomes, [3H]5-HT, 15 min at 37° C. The method, then: as §1, §2
T2 sequence (P31652 whole entry): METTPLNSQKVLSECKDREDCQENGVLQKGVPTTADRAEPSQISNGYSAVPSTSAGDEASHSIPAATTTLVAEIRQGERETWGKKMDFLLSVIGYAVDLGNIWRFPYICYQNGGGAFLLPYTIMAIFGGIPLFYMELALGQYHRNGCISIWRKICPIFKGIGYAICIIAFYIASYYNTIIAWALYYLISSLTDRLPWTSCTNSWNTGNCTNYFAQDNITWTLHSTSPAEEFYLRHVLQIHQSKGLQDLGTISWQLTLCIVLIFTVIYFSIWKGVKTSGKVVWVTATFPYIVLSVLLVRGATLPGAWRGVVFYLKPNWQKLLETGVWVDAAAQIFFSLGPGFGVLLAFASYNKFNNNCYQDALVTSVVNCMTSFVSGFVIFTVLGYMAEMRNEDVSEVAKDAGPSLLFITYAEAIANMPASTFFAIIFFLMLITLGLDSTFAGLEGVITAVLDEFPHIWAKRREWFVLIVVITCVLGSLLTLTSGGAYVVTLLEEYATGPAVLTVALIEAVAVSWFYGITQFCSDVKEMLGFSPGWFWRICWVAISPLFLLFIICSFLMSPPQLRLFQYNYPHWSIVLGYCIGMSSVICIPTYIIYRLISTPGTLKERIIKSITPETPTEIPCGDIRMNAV

In test [3] the target is T3, dopamine (DA) transport (Rattus norvegicus, UniProt P23977). Put plainly: Inhibition of [3H]DA uptake in rat striatum synaptosomes. The arrangement: synaptosomal preparations were made from either whole brain (5-HT), striatum (DA) or hypothalamus (NE); from tissue; host or cells: rat striatum synaptosomes. The settings on record: for inhibition at 0.5 µM: read-out: Uptake Inhibition % at 500 nM DA; for Uptake Inhibition % at 500 nM DA: 500 nM test compound, 15 min at 37° C. As to the method: as §1
as §2, with “([…])” for “(to yield final concentrations of 500 nM)”
Target sequence in this assay (P23977 whole entry): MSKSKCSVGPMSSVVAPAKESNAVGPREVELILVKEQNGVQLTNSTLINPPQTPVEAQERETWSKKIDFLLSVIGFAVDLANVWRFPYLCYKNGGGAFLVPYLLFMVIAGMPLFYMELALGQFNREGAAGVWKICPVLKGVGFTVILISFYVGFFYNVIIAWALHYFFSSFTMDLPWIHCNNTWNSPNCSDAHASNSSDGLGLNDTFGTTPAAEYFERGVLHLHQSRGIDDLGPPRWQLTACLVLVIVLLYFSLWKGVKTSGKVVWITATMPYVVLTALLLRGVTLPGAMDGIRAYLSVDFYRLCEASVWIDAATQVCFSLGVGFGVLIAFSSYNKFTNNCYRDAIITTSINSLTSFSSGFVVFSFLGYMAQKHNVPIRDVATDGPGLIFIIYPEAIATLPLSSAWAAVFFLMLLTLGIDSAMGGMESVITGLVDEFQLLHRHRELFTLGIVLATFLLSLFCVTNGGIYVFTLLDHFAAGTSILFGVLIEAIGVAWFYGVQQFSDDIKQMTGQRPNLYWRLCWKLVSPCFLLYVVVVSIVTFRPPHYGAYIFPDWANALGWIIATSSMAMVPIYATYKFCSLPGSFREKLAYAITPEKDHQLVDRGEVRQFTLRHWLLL

In test [4] the target is T3, dopamine (DA) transport. The description is as above. As to the method: as §1
as §2, with “([…])” for “(to yield final concentrations of 500 nM)”
Target sequence in this assay (P23977 whole entry, looked up): as the sequence (P23977 whole entry) above

For test [5], the target named is T2, serotonin (5-HT) transport. Description: Inhibition of [3H]5-HT uptake in rat whole brain synaptosomes.
The target in test [6] is T1, norepinephrine (NE) transport. Put plainly: Inhibition of [3H]NE uptake in rat hypothalamus synaptosomes.
Where [7] appears, read: rat striatum synaptosomes, [3H]DA, read-out: Uptake IC50 (nM) DA.
Where [8] appears, read: rat striatum synaptosomes, [3H]DA.

Read-outs that look alike come from different tables or passages of the source. Where only a bound is given, the exact number is not on record here.

T1 sequence (Q63380 1-617): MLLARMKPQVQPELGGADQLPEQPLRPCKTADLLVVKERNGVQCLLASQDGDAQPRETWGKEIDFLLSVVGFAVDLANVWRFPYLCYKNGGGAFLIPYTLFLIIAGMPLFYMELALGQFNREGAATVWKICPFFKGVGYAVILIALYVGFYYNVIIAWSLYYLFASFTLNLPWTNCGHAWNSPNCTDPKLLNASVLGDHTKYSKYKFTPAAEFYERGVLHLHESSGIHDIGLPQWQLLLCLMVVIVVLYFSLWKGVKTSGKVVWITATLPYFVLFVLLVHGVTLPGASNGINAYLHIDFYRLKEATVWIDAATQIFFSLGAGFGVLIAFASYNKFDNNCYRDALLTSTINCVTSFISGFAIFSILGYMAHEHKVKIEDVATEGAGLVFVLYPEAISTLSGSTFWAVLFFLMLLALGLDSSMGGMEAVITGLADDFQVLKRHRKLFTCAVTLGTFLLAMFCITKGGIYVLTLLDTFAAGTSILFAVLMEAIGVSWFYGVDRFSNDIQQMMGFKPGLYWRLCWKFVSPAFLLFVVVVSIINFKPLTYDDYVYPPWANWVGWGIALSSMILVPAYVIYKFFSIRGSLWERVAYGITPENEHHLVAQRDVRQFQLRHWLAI

By inhibition is commonly meant the drop in the measured response relative to a control, in per cent. As for `Cc1ccc(C23CC(N(C)C)CC2C3)cc1` (stereo not shown) [N,N-dimethyl-1-p-tolylbicyclo[3.1.0]hexan-3-amine], the results for the inhibition at 0.5 µM (in test [1]; in test [2]; at dopamine (DA) transport [3]) were 50%, 66% and 0%, respectively.
As usually defined, the IC50 is the concentration that gives 50% inhibition. Turning to `CNC1CCC2(c3ccc(C)cc3)CC12` (stereo not shown), the IC50 in test [1] came out at 313 nM; in test [2], 1190 nM; at dopamine (DA) transport [3] it was 858 nM. For the same molecule, the inhibition at 0.5 µM is 89% in test [1], 37% in test [2] and 63% on dopamine (DA) transport [3].
In the case of `NC1C[C@H]2C[C@@]2(c2ccc(Cl)c(Cl)c2)C1` (stereo partly shown), inhibition against dopamine (DA) transport [4] was half-maximal at 60 nM (IC50).
Consider `Cc1ccc(C23CCC(N)C2C3)cc1` (stereo not shown), for which the inhibition at 0.5 µM in test [1] worked out at 50%; in test [2], 25%; at dopamine (DA) transport [3], 31%.
The like results for `CNC1CCC2CC21c1ccc(C)cc1` (stereo not shown) [N-methyl-1-p-tolylbicyclo[3.1.0]hexan-2-amine] were, in that order, 8%, 4% and 33%.
`CNC1CCC2CC21c1ccc(Cl)c(Cl)c1` (stereo not shown) [1-(3,4-dichlorophenyl)-N-methylbicyclo[3.1.0]hexan-2-amine]: the IC50 in test [1] was 18 nM; in test [5], 3680 nM; against dopamine (DA) transport [3], 3 nM. Moreover, the inhibition at 0.5 µM in test [1] was determined as 94%; in test [2], 15%; at dopamine (DA) transport [3], 101%.
Turning to `NC1C[C@H]2C[C@@]2(c2cccc3ccccc23)C1` (stereo partly shown), the figures for the inhibition at 0.5 µM (in test [1]; in test [2]; on dopamine (DA) transport [3]) were 76%, 65% and 53%, respectively. Besides, the IC50 in test [5] came out at 425 nM; in test [6], 282 nM; on dopamine (DA) transport [3] (setting [7]), 496 nM.
`NC1CCC2CC12c1ccc(Cl)c(Cl)c1` (stereo not shown) [1-(3,4-dichlorophenyl)bicyclo[3.1.0]hexan-2-amine]: the results for the inhibition at 0.5 µM (in test [1]; in test [2]; at dopamine (DA) transport [3]) were 34%, 5% and 86%, respectively.
For `Cc1ccc(C23CC(N)CC2C3)cc1` (stereo not shown) [1-p-tolylbicyclo[3.1.0]hexan-3-amine] the same measures were 38%, 21% and 44%.
On to `CN(C)C1CCC2(c3cccc4ccccc34)CC12` (stereo not shown), for which the inhibition at 0.5 µM in test [1] stood at 25%; in test [2], 76%; at dopamine (DA) transport [3], 15%.
Regarding `CN(C)C1CCC2CC21c1ccc(Cl)c(Cl)c1` (stereo not shown) [1-(3,4-dichlorophenyl)-N,N-dimethylbicyclo[3.1.0]hexan-2-amine], the IC50 in test [1] worked out at 11 nM; in test [2], 1240 nM; on dopamine (DA) transport [3], 9 nM. The figures for the inhibition at 0.5 µM (in test [1]; in test [2]; at dopamine (DA) transport [3]) were 96%, 38% and 99%, respectively.
As for `CNC1CCC2(c3ccc(Cl)c(Cl)c3)CC12` (stereo not shown), the values for the 50% inhibitory concentration (IC50) (in test [1]; in test [2]; on dopamine (DA) transport [3]) were 444 nM, 75 nM and 360 nM, respectively. The inhibition at 0.5 µM amounted to 63% in test [1], 94% in test [2] and 56% at dopamine (DA) transport [3].
On to `NC1C[C@@H]2C[C@]2(c2ccc(Cl)c(Cl)c2)C1` (stereo partly shown), for which the values for the inhibition at 0.5 µM (in test [1]; in test [2]; at dopamine (DA) transport [3]) were 59%, 75% and 83%, respectively.
For `Cc1ccc(C23CC2CCC3N)cc1` (stereo not shown) [1-p-tolylbicyclo[3.1.0]hexan-2-amine], the inhibition at 0.5 µM in test [1] was found to be 14%; in test [2], 20%; at dopamine (DA) transport [3], 18%.
“N-methyl-5-p-tolylbicyclo[3.1.0]hexan-2-amine”: the “Uptake Inhibition % at 500 nM NE” value in test [1] was determined as 81%. Further, the IC50 in test [5] amounted to 76 nM; in test [6], 74 nM; at dopamine (DA) transport [3] (setting [7]), 8730 nM. In test [2], the “Uptake Inhibition % at 500 nM 5-HT” value is 82%. Further, on dopamine (DA) transport [3] (setting [8]), the “Uptake Inhibition % at 500 nM DA” value is reported as 23%.
For the molecule `NC1CC2CC2(c2ccc(Cl)c(Cl)c2)C1` (stereo not shown) [1-(3,4-dichlorophenyl)bicyclo[3.1.0]hexan-3-amine], the figures for the inhibition at 0.5 µM (in test [1]; in test [2]; on dopamine (DA) transport [3]) were 76%, 89% and 77%, respectively. For the same molecule, the results for the IC50 (in test [5]; in test [6]; at dopamine (DA) transport [3] (setting [7])) were 38 nM, 126 nM and 111 nM, respectively.
For `CN(C)C1CCC2(c3ccc4ccccc4c3)CC12` (stereo not shown), the inhibition at 0.5 µM in test [1] worked out at 26%; in test [2], 96%; on dopamine (DA) transport [3], 42%.
As to `CN(C)C1CCC2(c3ccc(Cl)c(Cl)c3)CC12` (stereo not shown), the inhibition at 0.5 µM in test [1] worked out at 29%; in test [2], 95%; on dopamine (DA) transport [3], 34%.
For the molecule `CNC1CCC2(c3ccc4ccccc4c3)CC12` (stereo not shown), the inhibition at 0.5 µM in test [1] came to 47%; in test [2], 90%; on dopamine (DA) transport [3], 45%.
As for `CNC1CCC2(c3cccc4ccccc34)CC12` (stereo not shown), the inhibition at 0.5 µM is 49% in test [1], 90% in test [2] and 29% at dopamine (DA) transport [3].
As to `Cc1ccc(C23CC2CCC3N(C)C)cc1` (stereo not shown) [N,N-dimethyl-1-p-tolylbicyclo[3.1.0]hexan-2-amine], the IC50 in test [1] is 2090 nM; in test [2], greater than 5000 nM; against dopamine (DA) transport [3] it was 335 nM. The inhibition at 0.5 µM in test [1] worked out at 71%; in test [2], 0%; on dopamine (DA) transport [3] it was 70%.
As to 5-p-tolylbicyclo[3.1.0]hexan-2-amine, the “Uptake Inhibition % at 500 nM NE” value in test [1] was 42%. Besides, in test [2], the “Uptake Inhibition % at 500 nM 5-HT” value amounted to 74%. Besides, the “Uptake Inhibition % at 500 nM DA” value at dopamine (DA) transport [3] (setting [8]) stood at 39%.
For the molecule `CNC1CC2CC2(c2ccc(C)cc2)C1` (stereo not shown) [N-methyl-1-p-tolylbicyclo[3.1.0]hexan-3-amine], the inhibition at 0.5 µM is 73% in test [1], 69% in test [2] and 43% at dopamine (DA) transport [3].
`Cc1ccc(C23CCC(N(C)C)C2C3)cc1` (stereo not shown): the inhibition at 0.5 µM in test [1] came out at 57%; in test [2], 44%; on dopamine (DA) transport [3], 55%.
